According to US20210395256A1, “TYROSINE KINASE INHIBITORS, COMPOSITIONS AND METHODS THERE OF” (Betta Pharmaceuticals Co., Ltd., priority 2018, published 2021):

Key:
CYP3A4 = target: T1, CYP3A4 (Homo sapiens, UniProt P08684); experiment: Cytochrome P450 inhibition, CYP3A4; type: in vitro ADME; conditions: 10 μM compound, human liver microsomes; for inhibition at 5 min, 10 µM: probe Midazolam (5 μM), substrate Midazolam, read-out: Inhibition percentage CYP3A4 (Midazolam); for inhibition at 10 min, 10 µM: probe Testosterone (50 μM), substrate Testosterone, read-out: Inhibition percentage CYP3A4 (Testosterone)
T1 construct: from tissue; host or cells: human liver microsomes
Method: Example 205 Cytochrome P450 Measurements
The cytochrome P450 was measured as the following procedure:
1) A master solution containing phosphate buffer, ultra-pure H2O, MgCl2 solution and human liver microsomes was made according to Table 17, and then 1 μL of 2 mM of compound solution or 1 μL of DMSO (as without inhibitor control) was added to the above master solution. The final concentration of test compounds or control compounds was 10 μM.
6) For CYP3A4 inhibition, 1 μL of specific drug substrate (Midazolam: 1 mM) was added at the final concentration of 5 μM to the above solution.
7) For CYP3A4 inhibition, 1 μL of specific drug substrate (Testosterone: 10 mM) was added at the final concentration of 50 μM to the above solution.
8) The mixture was pre-warmed at 37° C. for 5 min. The reaction was started by the addition of 20 μL of 10 mM NADPH solution at the final concentration of 1 mM and carried out at 37° C.
9) The reaction was stopped by addition of 300 μL of cold quench solution (methanol containing internal standards (1S, 500 nM Labetalol, 100 nM Alprazolam and 2 μM Ketoprofen) at the designated time points (Phenacetin: 20 min; Paclitaxel: 10 min; Tolbutamide: 20 min; (s)-Mephenytoin: 20 min; Midazolam: 5 min; Testosterone: 10 min). Samples were vortexed for 5 minutes and centrifuged at 3220 g for 40 minutes at 4° C. And then 100 μL of the supernatant was transferred to a new 96-well plate with 100 μL or 200 μL water (depends on the LC-MS signal response and peak shape) for LC-MS/MS analysis.
All experiments were performed in duplicates.
Inhibition percentages for compounds against CYP1A2, CYP2C8, CYP2C9, CYP2C19, and […]

CYP1A2 = target: T2, CYP1A2 (Homo sapiens, UniProt P05177); experiment: Cytochrome P450 inhibition, CYP1A2; type: in vitro ADME; conditions: probe Phenacetin (40 μM); 10 μM compound, human liver microsomes, substrate Phenacetin; read-out: Inhibition percentage CYP1A2 (Phenacetin)
T2 construct: from tissue; host or cells: human liver microsomes
T2 sequence (P05177 1-516): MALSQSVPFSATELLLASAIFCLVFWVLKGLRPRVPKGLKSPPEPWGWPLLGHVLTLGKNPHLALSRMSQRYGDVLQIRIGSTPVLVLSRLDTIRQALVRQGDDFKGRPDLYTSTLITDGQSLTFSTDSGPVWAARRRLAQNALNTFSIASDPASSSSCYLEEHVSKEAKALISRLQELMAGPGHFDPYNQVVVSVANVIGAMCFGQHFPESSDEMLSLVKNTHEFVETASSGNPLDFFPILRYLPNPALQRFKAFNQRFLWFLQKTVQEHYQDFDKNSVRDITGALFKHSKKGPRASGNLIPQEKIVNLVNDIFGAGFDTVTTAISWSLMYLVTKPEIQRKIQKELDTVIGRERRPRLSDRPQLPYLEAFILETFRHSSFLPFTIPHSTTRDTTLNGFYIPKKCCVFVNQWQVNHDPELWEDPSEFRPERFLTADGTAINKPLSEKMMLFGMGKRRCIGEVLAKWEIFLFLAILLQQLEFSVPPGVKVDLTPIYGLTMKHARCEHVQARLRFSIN
Method: Example 205 Cytochrome P450 Measurements The cytochrome P450 was measured as the following procedure: 1) A master solution containing phosphate buffer, ultra-pure H2O, MgCl2 solution and human liver microsomes was made according to Table 17, and then 1 μL of 2 mM of compound solution or 1 μL of DMSO (as without inhibitor control) was added to the above master solution. The final concentration of test compounds or control compounds was 10 μM. [table] 2) For CYP1A2 inhibition, 1 μL of specific drug substrate (Phenacetin: 8 mM) was added at the final concentration of 40 μM to the above solution. 8) The mixture was pre-warmed at 37° C. for 5 min. The reaction was started by the addition of 20 μL of 10 mM NADPH solution at the final concentration of 1 mM and carried out at 37° C. 9) The reaction was stopped by addition of 300 μL of cold quench solution (methanol containing internal standards (1S, 500 nM Labetalol, 100 nM Alprazolam and 2 μM Ketoprofen) at the designated time points (Phenacetin: 20 min; Paclitaxel: 10 min; Tolbutamide: 20 min; (s)-Mephenytoin: 20 min; Midazolam: 5 min; Testosterone: 10 min). Samples were vortexed for 5 minutes and centrifuged at 3220 g for 40 minutes at 4° C. And then 100 μL of the supernatant was transferred to a new 96-well plate with 100 μL or 200 μL water (depends on the LC-MS signal response and peak shape) for LC-MS/MS analysis. All experiments were performed in duplicates.

NTRK1-G595R = NTRK1-G595R (Homo sapiens, UniProt P04629, G595R); experiment: NTRK1-G595R cell proliferation assay (Table 13); type: cell-based
Sequence of NTRK1-G595R (P04629 33-796 G595R): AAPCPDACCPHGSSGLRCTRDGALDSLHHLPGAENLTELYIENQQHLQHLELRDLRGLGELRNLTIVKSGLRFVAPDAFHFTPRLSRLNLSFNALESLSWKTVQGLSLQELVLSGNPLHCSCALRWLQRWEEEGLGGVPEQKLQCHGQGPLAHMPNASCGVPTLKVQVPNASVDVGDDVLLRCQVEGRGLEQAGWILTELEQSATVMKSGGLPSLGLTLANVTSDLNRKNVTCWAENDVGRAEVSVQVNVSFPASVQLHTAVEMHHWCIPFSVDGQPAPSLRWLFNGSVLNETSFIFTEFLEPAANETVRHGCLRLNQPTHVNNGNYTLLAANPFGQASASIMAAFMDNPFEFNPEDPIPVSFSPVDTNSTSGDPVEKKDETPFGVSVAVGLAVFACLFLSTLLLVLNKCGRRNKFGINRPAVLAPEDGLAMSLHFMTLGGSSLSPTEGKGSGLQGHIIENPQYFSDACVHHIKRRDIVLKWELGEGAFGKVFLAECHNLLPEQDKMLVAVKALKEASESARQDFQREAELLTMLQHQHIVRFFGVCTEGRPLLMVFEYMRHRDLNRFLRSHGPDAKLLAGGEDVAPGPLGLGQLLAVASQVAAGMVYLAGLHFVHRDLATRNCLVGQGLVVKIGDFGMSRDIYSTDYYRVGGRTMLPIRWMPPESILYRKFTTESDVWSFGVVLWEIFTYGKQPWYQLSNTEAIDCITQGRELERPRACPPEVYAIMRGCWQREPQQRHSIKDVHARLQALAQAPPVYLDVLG

T1 sequence (P08684 whole entry): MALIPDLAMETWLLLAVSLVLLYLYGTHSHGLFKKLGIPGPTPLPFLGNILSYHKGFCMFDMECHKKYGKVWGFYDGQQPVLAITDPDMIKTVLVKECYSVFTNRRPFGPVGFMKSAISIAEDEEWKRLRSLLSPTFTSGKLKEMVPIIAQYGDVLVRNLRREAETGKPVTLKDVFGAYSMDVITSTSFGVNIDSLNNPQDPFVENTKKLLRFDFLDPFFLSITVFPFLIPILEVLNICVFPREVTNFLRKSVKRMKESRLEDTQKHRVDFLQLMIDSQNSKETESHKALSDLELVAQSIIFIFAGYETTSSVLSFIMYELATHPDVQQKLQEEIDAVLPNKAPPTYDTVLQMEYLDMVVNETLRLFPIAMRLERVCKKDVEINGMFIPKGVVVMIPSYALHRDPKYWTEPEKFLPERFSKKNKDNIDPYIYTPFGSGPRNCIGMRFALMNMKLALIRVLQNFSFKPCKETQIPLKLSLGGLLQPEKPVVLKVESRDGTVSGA

Row | SMILES | inhibition at 5 min, 10 µM (CYP3A4) [%] | inhibition at 10 min, 10 µM (CYP3A4) [%] | inhibition at 20 min, 10 µM (CYP1A2) [%] | IC50 (NTRK1-G595R) [nM]
1 | Cc1nnc(-c2cnn3ccc(N4CCCC4c4cc(F)ccc4F)nc23)[nH]1 (stereo not shown) [Comparative compound A, 5-[2-(2,5-Difluorophenyl)pyrrolidin-1-yl]-3-(5-methyl-1H-1,2,4-triazol-3-yl)pyrazolo[1,5-a]pyrimidine, reference compound] | 70.1 | 38.3 | 29 | –
2 | C[C@H](O)c1nnc(-c2cnn3ccc(N4CCC[C@@H]4c4cc(F)ccc4F)nc23)[nH]1 [Compound 4, (S)-1-(5-(5-((R)-2-(2,5-difluorophenyl)pyrrolidin-1-yl)pyrazolo[1,5-a]pyrimidin-3-yl)-4H-1,2,4-triazol-3-yl)ethan-1-ol] | 20 | 22.8 | 1.53 | –
3 | CC(C)(O)c1nnc(-c2cnn3ccc(N4CCC[C@@H]4c4cc(F)ccc4F)nc23)[nH]1 [Compound 7, (R)-2-(5-(5-(2-(2,5-difluorophenyl)pyrrolidin-1-yl)pyrazolo[1,5-a]pyrimidin-3-yl)-4H-1,2,4-triazol-3-yl)propan-2-ol] | 6.97 | 5.7 | 8.54 | 107
4 | OC(c1nnc(-c2cnn3ccc(N4CCC[C@@H]4c4cc(F)ccc4F)nc23)[nH]1)C(F)(F)F (stereo partly drawn) [Compound 47, 1-(5-(5-((R)-2-(2,5-difluorophenyl)pyrrolidin-1-yl)pyrazolo[1,5-a]pyrimidin-3-yl)-4H-1,2,4-triazol-3-yl)-2,2,2-trifluoroethan-1-ol] | 22.4 | 29.5 | 4.38 | –
